Assay results: patent US11834453B2, “Substituted pyrimido[5,4-d]pyrimidines as HER2 inhibitors” (Array BioPharma Inc., priority 2020, dated 2023)
Read-outs that look alike come from different tables or passages of the source.

Assays:
[1] = biological target: ErbB2 insYVMA (HER2-YVMA, SEQ ID NO: 2) (Homo sapiens, UniProt P04626, INS775YVMA/P1170A); test: biochemical; details: ErbB2 insYVMA enzyme assay
ErbB2 WT = ErbB2 WT (Homo sapiens (Human), UniProt P04626); test: ErbB enzyme assay (CisBio HTRF KinEASE-TK), Assay 2; type: biochemical
In short: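 ErbB2 phosphorylates 250 nM biotin-TK substrate at 1 mM ATP in 25 mM HEPES pH 7.4, 10 mM MgCl2, 0.01% Triton X-100 and 2% DMSO, for 30 min at 22 °C. Product is detected by HTRF with Sa-XL665 and TK-Ab-Cryptate. Percent of control is set by DMSO-only wells and pre-quenched wells.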

EGFR = EGFR (Homo sapiens (Human), UniProt P00533); test: ErbB enzyme assay (CisBio HTRF KinEASE-TK), Assay 3; type: biochemical
In short: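 HTRF KinEASE-TK assay: kinase with 250 nM biotinylated TK-substrate and 1 mM ATP in 25 mM HEPES pH 7.4, 10 mM MgCl2, 0.01% Triton X-100, 2% DMSO, 30 min at 22 °C. Quenched with Sa-XL665/TK-Ab-Cryptate, read after 1 h. IC50 from 4-parameter fit of percent of control.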

[2] = biological target: ErbB2 with Exon 20 YVMA insertion (HER2-YVMA) (Homo sapiens (Human), UniProt P04626, INS775YVMA); test: Cellular phosphorylation assay, constitutive ErbB2 phosphorylation (Y1196) in engineered NIH 3T3 cells, Assay 4; type: cell-based
In short: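 Engineered NIH 3T3 cells expressing HER2-YVMA treated with compounds 1 h at 37 °C, then formaldehyde-fixed and methanol-permeabilized. pErbB2 Y1196 detected by in-cell infrared immunofluorescence, normalized to GAPDH. IC50 from the normalized curves.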

EGFR wild type (EGFR WT) = EGFR wild type (EGFR WT) (Homo sapiens (Human), UniProt P00533); test: Cellular phosphorylation assay, EGF-stimulated EGFR phosphorylation in engineered NIH 3T3 cells, Phospho-EGFR DuoSet IC ELISA, Assay 5; type: cell-based
In short: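 NIH 3T3 cells expressing EGFR WT (20,000/well, attached overnight) were exposed to serially diluted compound for 1 h at 37 °C, then stimulated with 100 ng/ml rEGF for 10 min. Phospho-EGFR in lysates measured by sandwich ELISA optical density; IC50 from curves.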

MDR1 (P-gp) = MDR1 (P-gp) (Homo sapiens (Human), UniProt P08183); test: MDR1 transfected LLC-PK1 permeability/efflux, Assay 6; details: for efflux ratio at 2 h, 1 μM: pig
BCRP = BCRP (Homo sapiens (Human), UniProt Q9UNQ0); test: BCRP transfected MDCKII canine Mdr1 knockout permeability/efflux, Assay 9; details: for efflux ratio at 2 h, 1 μM: dog
[3] = LLC-PK1, Assay 6 Pe Ratio, efflux ratio Papp(B-A)/Papp(A-B), MDR1 transfected LLC-PK1
[4] = Assay 9 Pe Ratio, efflux ratio Papp(B-A)/Papp(A-B), BCRP transfected MDCKII canine Mdr1 knockout

BCRP, sequence (Q9UNQ0 whole entry): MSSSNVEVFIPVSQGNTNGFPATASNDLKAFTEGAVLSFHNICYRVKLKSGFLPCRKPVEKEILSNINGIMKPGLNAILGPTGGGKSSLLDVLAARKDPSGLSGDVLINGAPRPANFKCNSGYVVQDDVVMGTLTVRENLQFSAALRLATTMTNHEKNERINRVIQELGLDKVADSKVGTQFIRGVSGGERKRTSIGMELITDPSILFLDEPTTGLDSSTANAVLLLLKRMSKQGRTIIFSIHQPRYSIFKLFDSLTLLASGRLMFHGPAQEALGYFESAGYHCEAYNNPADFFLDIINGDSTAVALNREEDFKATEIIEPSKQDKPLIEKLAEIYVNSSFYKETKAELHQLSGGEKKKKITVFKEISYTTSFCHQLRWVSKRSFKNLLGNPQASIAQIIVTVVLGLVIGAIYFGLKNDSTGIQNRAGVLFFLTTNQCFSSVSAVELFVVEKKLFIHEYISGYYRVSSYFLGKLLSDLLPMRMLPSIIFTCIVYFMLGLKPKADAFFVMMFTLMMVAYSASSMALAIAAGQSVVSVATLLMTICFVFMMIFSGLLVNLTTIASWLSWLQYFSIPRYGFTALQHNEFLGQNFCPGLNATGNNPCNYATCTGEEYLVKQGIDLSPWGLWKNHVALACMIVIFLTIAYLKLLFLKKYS
ErbB2 insYVMA (HER2-YVMA, SEQ ID NO: 2), sequence (P04626 with tags, fused parts or gaps INS775YVMA/P1170A limits assumed): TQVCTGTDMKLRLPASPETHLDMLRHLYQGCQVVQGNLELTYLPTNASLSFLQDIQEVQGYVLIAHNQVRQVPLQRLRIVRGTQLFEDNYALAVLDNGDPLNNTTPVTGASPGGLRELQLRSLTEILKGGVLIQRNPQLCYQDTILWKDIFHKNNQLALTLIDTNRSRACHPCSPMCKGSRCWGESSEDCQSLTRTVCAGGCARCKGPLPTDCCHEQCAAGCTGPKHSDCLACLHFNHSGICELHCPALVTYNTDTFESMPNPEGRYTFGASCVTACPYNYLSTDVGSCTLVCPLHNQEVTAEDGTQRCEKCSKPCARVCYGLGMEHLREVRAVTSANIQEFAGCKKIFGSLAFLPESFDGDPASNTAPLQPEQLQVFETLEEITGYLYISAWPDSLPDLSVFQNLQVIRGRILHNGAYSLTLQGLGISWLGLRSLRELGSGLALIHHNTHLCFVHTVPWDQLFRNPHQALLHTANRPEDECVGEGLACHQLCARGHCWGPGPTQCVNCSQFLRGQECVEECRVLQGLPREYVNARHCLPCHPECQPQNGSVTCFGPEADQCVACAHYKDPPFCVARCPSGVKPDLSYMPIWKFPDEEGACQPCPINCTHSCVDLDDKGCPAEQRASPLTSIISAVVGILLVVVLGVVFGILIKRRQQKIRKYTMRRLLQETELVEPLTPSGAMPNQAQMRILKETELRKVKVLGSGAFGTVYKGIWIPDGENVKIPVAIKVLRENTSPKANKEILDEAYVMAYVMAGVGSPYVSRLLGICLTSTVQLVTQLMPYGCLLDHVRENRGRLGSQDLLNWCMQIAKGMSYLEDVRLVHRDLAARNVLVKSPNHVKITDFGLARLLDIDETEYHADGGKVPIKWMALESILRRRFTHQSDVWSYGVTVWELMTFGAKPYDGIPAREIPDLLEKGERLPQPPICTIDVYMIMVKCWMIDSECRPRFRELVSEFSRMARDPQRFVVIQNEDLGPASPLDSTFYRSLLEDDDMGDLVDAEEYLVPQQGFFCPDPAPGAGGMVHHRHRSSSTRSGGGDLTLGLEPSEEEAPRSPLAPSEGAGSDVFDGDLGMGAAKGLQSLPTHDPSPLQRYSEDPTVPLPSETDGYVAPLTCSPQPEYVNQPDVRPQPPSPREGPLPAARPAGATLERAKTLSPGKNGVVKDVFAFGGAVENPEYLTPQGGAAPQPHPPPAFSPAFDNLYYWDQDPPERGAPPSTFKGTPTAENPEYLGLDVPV
EGFR wild type (EGFR WT), sequence (P00533 25-1210): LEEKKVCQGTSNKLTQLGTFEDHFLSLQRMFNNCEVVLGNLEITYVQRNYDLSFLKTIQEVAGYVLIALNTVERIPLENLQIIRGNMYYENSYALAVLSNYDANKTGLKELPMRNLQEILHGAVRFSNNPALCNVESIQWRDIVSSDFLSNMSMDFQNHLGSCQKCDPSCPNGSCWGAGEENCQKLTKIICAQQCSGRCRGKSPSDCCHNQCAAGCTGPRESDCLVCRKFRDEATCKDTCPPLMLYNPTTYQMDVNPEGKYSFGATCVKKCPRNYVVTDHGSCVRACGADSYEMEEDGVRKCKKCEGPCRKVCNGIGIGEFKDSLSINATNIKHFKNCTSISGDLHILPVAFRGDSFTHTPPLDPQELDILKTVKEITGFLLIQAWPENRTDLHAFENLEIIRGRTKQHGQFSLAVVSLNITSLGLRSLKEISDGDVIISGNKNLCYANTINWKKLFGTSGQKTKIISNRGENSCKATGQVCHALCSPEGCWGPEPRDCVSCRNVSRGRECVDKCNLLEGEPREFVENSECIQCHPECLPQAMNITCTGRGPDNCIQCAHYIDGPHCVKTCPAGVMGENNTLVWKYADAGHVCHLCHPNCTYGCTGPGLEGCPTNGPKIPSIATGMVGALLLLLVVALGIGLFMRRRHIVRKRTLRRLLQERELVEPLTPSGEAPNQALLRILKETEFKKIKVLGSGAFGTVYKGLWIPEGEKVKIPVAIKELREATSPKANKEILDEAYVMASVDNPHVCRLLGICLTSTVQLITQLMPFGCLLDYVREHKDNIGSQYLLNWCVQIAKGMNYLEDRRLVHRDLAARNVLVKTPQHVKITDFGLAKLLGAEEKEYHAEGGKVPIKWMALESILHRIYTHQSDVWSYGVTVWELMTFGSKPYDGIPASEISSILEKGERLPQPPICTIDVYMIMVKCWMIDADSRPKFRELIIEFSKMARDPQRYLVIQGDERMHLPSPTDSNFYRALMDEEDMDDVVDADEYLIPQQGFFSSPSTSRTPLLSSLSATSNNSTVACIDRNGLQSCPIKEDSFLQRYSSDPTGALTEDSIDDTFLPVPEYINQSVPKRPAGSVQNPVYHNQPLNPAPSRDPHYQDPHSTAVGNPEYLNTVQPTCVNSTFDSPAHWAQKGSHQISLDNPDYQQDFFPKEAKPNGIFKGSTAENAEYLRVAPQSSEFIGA
EGFR, sequence (P00533 25-1210): as above

Row | SMILES | IC50 ([1]; read-out: Assay 1 IC50) [nM] | IC50 (ErbB2 WT) [nM] | IC50 (EGFR) [µM] | IC50 [2] [nM] | IC50 (EGFR wild type (EGFR WT)) [µM] | efflux ratio at 2 h, 1 μM (MDR1 (P-gp); [3]) | efflux ratio at 2 h, 1 μM (BCRP; [4]) | IC50 ([1]; Assay 1 IC50 (nM)) [nM] | efflux ratio at 2 h, 1 μM (MDR1 (P-gp); LLC-PK1) | efflux ratio at 2 h, 1 μM (BCRP) | Assay 6 Pe Ratio (MDR1 (P-gp); efflux ratio Papp(B-A)/Papp(A-B), MDR1 transfected LLC-PK1) | Assay 9 Pe Ratio (BCRP; efflux ratio Papp(B-A)/Papp(A-B), BCRP transfected MDCKII canine Mdr1 knockout)
1 | Cc1cc(Nc2ncnc3cnc(N4CC5(CCO5)C4)nc23)ccc1Oc1ccc2c(c1)ncn2C [Example 282] | 40 | 83.9 | ≥ 10 | 26.3 | ≥ 5 | 1.9 | 3.5 | – | – | – | – | –
2 | Cc1cc(Nc2ncnc3cnc(N4CCO[C@@H](C)C4)nc23)ccc1Oc1ccc2c(c1)ncn2C.O=C(O)C(F)(F)F [Example 74, (S)—N-(3-methyl-4-((1-methyl-1H-benzo[d]imidazol-5-yl)oxy)phenyl)-6-(2-methylmorpholino)pyrimido[5,4-d]pyrimidin-4-amine 2,2,2-trifluoroacetate] | – | 35.5 | 3.72 | 14.6 | ≥ 5 | – | – | 33 | 1.7 | 1.3 | – | –
3 | Cc1cc(Nc2ncnc3cnc(N4CC5CC4CO5)nc23)ccc1Oc1ccc2c(c1)ncn2C.O=C(O)C(F)(F)F (stereo not shown) [Example 77, 6-(2-oxa-5-azabicyclo[2.2.1]heptan-5-yl)-N-(3-methyl-4-((1-methyl-1H-benzo[d]imidazol-5-yl)oxy)phenyl)pyrimido[5,4-d]pyrimidin-4-amine 2,2,2-trifluoroacetate] | – | 48.9 | ≥ 10 | 17.2 | ≥ 5 | 1.7 | 1.9 | 26 | – | – | – | –
4 | Cc1cc(Nc2ncnc3cnc(-c4cccnc4)nc23)ccc1Oc1ccc2c(c1)ncn2C [Example 233] | 27.5 | 41.5 | 3.74 | 15.7 | ≥ 5 | 1.5 | 1.6 | – | – | – | – | –
5 | Cc1nc(-c2ncc3ncnc(Nc4ccc(Oc5ccc6c(c5)ncn6C)c(C)c4)c3n2)cs1 [Example 247] | 81.7 | 96.9 | ≥ 10 | 3.5 | ≥ 5 | 1.6 | 4.7 | – | – | – | – | –
6 | Cc1cc(Nc2ncnc3cnc(N4CCO[C@H]5C[C@H]54)nc23)ccc1Oc1ccc2c(c1)ncn2C [Example 161, 6-((1S,6R)-2-oxa-5-azabicyclo[4.1.0]heptan-5-yl)-N-(3-methyl-4-((1-methyl-1H-benzo[d]imidazol-5-yl)oxy)phenyl)pyrimido[5,4-d]pyrimidin-4-amine] | 18.4 | 28.9 | 8.28 | 16 | ≥ 5 | 1.8 | 1.2 | – | – | – | – | –
7 | CON1CCN(c2ncc3ncnc(Nc4ccc(Oc5ccc6c(c5)ncn6C)c(C)c4)c3n2)CC1 [Example 35, 6-(4-methoxypiperazin-1-yl)-N-(3-methyl-4-((1-methyl-1H-benzo[d]imidazol-5-yl)oxy)phenyl)pyrimido[5,4-d]pyrimidin-4-amine] | 33.5 | 94.2 | ≥ 10 | 7.8 | ≥ 5 | 1.3 | 1.2 | – | – | – | – | –
8 | Cc1cc(Nc2ncnc3cnc(N4CCC[C@H]4C(F)(F)F)nc23)ccc1Oc1ccc2c(c1)ncn2C [Example 249] | 35.9 | 23.4 | ≥ 10 | 37.4 | ≥ 5 | 0.3 | 3 | – | – | – | – | –
9 | CNc1ncc2ncnc(Nc3ccc(Oc4cc(F)c5c(c4)ncn5C)c(C)c3)c2n1 [Example 88, N8-(4-((7-fluoro-1-methyl-1H-benzo[d]imidazol-5-yl)oxy)-3-methylphenyl)-N2-methylpyrimido[5,4-d]pyrimidine-2,8-diamine] | 4.8 | 8.6 | 9.48 | 5.1 | ≥ 5 | 1.9 | 1 | – | – | – | – | –
10 | Cc1cc(Nc2ncnc3cnc(N4CCO[C@H]5C[C@H]54)nc23)ccc1Oc1ccc2c(c1)ncn2C (single isomer, unassigned) [Example 60b] | 16.1 | 18.7 | 5.68 | 17.9 | ≥ 5 | – | – | – | – | – | 1.9 | 1.4
